Laboratory results: US20100227935A1, “CLASS OF TERPENE-DERIVED COMPOUNDS HAVING AN ANTIBIOTIC ACTIVITY, COMPOSITIONS CONTAINING THE SAME AND USES THEREOF” (Centre National De La Recherche Scientifique, priority 2006, published 2010)
≈ marks a conversion by molar mass, not a printed value.

Legend:
C. difficile [1] = settings: molecules in current use or in clinical trials (phase III); cited from earlier work
C. difficile [2] = settings: cited from earlier work
Staphylococcus aureus H1 = test: MIC / antibiotic susceptibility; format: cell-based; further: key: R: strain resistant to antibiotic concerned; S: strain sensitive to antibiotic concerned; L strain with intermediate resistance to antibiotic concerned
Staphylococcus aureus H3 = test: MIC / antibiotic susceptibility; format: cell-based; further: key: R: strain resistant to antibiotic concerned; S: strain sensitive to antibiotic concerned; L strain with intermediate resistance to antibiotic concerned
Staphylococcus aureus H4 = test: MIC / antibiotic susceptibility; format: cell-based; further: key: R: strain resistant to antibiotic concerned; S: strain sensitive to antibiotic concerned; L strain with intermediate resistance to antibiotic concerned
Staphylococcus aureus H7 = test: MIC / antibiotic susceptibility; format: cell-based
Staphylococcus aureus H9 = test: MIC / antibiotic susceptibility; format: cell-based
[3] = system: Staphylococcus aureus H16; format: cell-based
[4] = system: Staphylococcus aureus H18; test: MIC / antibiotic susceptibility; format: cell-based; further: key: R: strain resistant to antibiotic concerned; S: strain sensitive to antibiotic concerned; L strain with intermediate resistance to antibiotic concerned

Row | Compound | MIC on C. difficile (C. difficile [1]) [µg/mL] | Patients for whom the drug is inactive (C. difficile [2]; first intention treatment of C. difficile infection) [%] | Relapses (C. difficile [2]; treatment of C. difficile infection) | Susceptibility of strain to antibiotic (Staphylococcus aureus H1) | Susceptibility of strain to antibiotic (Staphylococcus aureus H3) | Susceptibility of strain to antibiotic (Staphylococcus aureus H4) | Susceptibility of strain to antibiotic (Staphylococcus aureus H7) | Susceptibility of strain to antibiotic (Staphylococcus aureus H9) | Susceptibility of strain to antibiotic [3] | Susceptibility of strain to antibiotic [4]
1 | Cc1ncc([N+](=O)[O-])n1CCO [Metronidazole] | 1 (≈ 5.84 µM) | 25 | 25 % of cases | – | – | – | – | – | – | –
2 | Co-trimoxazole | – | – | – | S | S | S | S | S | S | S
3 | CC(=O)Oc1ccccc1C(=O)Nc1ncc([N+](=O)[O-])s1 [Nitazoxanide] | 0.1 (≈ 0.325 µM) | – | – | – | – | – | – | – | – | –
4 | CC(=O)O[C@H]1C[C@@]2(C)[C@@H](C[C@@H](O)[C@H]3[C@@]4(C)CC[C@@H](O)[C@@H](C)[C@@H]4CC[C@@]32C)/C1=C(\CCC=C(C)C)C(=O)O [Fusidic acid] | – | – | – | S | S | S | S | R | S | S
5 | CO[C@H]1/C=C/O[C@@]2(C)Oc3c(C)c(O)c4c(O)c(c(/C=N/N5CCN(C)CC5)c(O)c4c3C2=O)NC(=O)/C(C)=C\C=C\[C@H](C)[C@H](O)[C@@H](C)[C@@H](O)[C@@H](C)[C@H](OC(C)=O)[C@@H]1C [Rifampicin] | – | – | – | S | S | S | S | S | R | S
6 | CC[C@H]1OC(=O)[C@H](C)[C@@H](O[C@H]2C[C@@](C)(OC)[C@@H](O)[C@H](C)O2)[C@H](C)[C@@H](O[C@@H]2O[C@H](C)C[C@H](N(C)C)[C@H]2O)[C@](C)(O)C[C@@H](C)C(=O)[C@H](C)[C@@H](O)[C@]1(C)O [Erythromycin] | – | – | – | S | R | S | R | R | R | R
7 | CN(C)[C@@H]1C(O)=C(C(N)=O)C(=O)[C@@]2(O)C(O)=C3C(=O)c4c(O)cccc4[C@@](C)(O)[C@H]3C[C@@H]12 [Tetracycline] | – | – | – | S | S | S | – | – | R | –
8 | C[C@@H]1O[C@@H]1P(=O)(O)O [Fosfomycin] | – | – | – | S | S | S | S | S | R | R
9 | NCC[C@H](O)C(=O)N[C@@H]1C[C@H](N)[C@@H](O[C@H]2O[C@H](CN)[C@@H](O)[C@H](O)[C@H]2O)[C@H](O)[C@H]1O[C@H]1O[C@H](CO)[C@@H](O)[C@H](N)[C@H]1O [Amikacin] | – | – | – | S | S | R | S | S | R | R
10 | CCn1cc(C(=O)O)c(=O)c2cc(F)c(N3CCNCC3)cc21 [Norfloxacin] | – | – | – | S | R | R | R | S | R | R
11 | CC1(C)S[C@@H]2[C@H](NC(=O)Cc3ccccc3)C(=O)N2[C@H]1C(=O)O [Penicillin G] | – | – | – | R | R | R | R | R | R | R
12 | Cc1nnc(SCC2=C(C(=O)O)N3C(=O)[C@@H](NC(=O)Cn4cnnn4)[C@H]3SC2)s1 [Cefazoline] | – | – | – | S | S | R | S | S | R | R
13 | CC1(C)S[C@@H]2[C@H](NC(=O)[C@H](N)c3ccc(O)cc3)C(=O)N2[C@H]1C(=O)O [Amoxicillin] | – | – | – | R | R | R | R | R | R | R
14 | Gentamicin | – | – | – | S | S | S | S | S | R | S
15 | CCN1CCN(C(=O)N[C@@H](C(=O)N[C@@H]2C(=O)N3[C@@H]2SC(C)(C)[C@@H]3C(=O)O)c2ccccc2)C(=O)C1=O [Piperacillin] | – | – | – | R | R | R | R | R | R | R
16 | Cc1onc(-c2ccccc2)c1C(=O)N[C@@H]1C(=O)N2[C@@H]1SC(C)(C)[C@@H]2C(=O)O [Oxacillin] | – | – | – | S | S | R | S | S | R | R
17 | CC1COc2c(N3CCN(C)CC3)c(F)cc3c(=O)c(C(=O)O)cn1c23 (stereo not drawn) [Ofloxacin] | – | – | – | S | R | R | R | S | R | R
18 | Teicoplanin | – | – | – | S | S | S | S | S | – | R
19 | C[C@H]1c2cccc(O)c2C(O)=C2C(=O)[C@]3(O)C(O)=C(C(N)=O)C(=O)[C@@H](N(C)C)[C@@H]3[C@@H](O)[C@@H]21 [Doxycyclin] | – | – | – | S | S | S | S | S | – | S
20 | CCc1c(Cl)c(O)c(Cl)c(O)c1C(=O)O[C@H]1[C@H](O)[C@H](OC)[C@H](OC/C2=C\C=C\C[C@H](O)/C(C)=C/[C@H](CC)[C@@H](O[C@@H]3OC(C)(C)[C@@H](OC(=O)C(C)C)[C@H](O)[C@@H]3O)/C(C)=C/C(C)=C/C[C@@H]([C@@H](C)O)OC2=O)O[C@@H]1C [Lipiarmycin] | 0.06 to 2 | – | – | – | – | – | – | – | – | –
21 | CN[C@H](CC(C)C)C(=O)N[C@H]1C(=O)N[C@@H](CC(N)=O)C(=O)N[C@H]2C(=O)N[C@H]3C(=O)N[C@H](C(=O)N[C@H](C(=O)O)c4cc(O)cc(O)c4-c4cc3ccc4O)[C@H](O)c3ccc(c(Cl)c3)Oc3cc2cc(c3O[C@@H]2O[C@H](CO)[C@@H](O)[C@H](O)[C@H]2O[C@H]2C[C@](C)(N)[C@H](O)[C@H](C)O2)Oc2ccc(cc2Cl)[C@H]1O [Vancomycin] | ~1 (≈ 0.69 µM) | – | – | S | S | S | S | S | S | R
22 | Pristinamycin | – | – | – | S | S | S | S | S | – | S
23 | CO[C@H]1/C=C/O[C@@]2(C)Oc3c(C)c(O)c4c(O)c(c5c(nc6cc(C)ccn65)c4c3C2=O)NC(=O)/C(C)=C\C=C\[C@H](C)[C@H](O)[C@@H](C)[C@@H](O)[C@@H](C)[C@H](OC(C)=O)[C@@H]1C [Rifaximin] | 0.08 to 0.2 | – | – | – | – | – | – | – | – | –
24 | NC[C@H]1O[C@H](O[C@H]2[C@H](O)[C@@H](O[C@H]3O[C@H](CO)[C@@H](O)[C@H](N)[C@H]3O)[C@H](N)C[C@@H]2N)[C@H](N)C[C@@H]1O [Tobramycin] | – | – | – | S | S | R | S | S | R | R
